{"source": "patent US10813891B2", "about": "“Method of inhibiting chronification of pain” (priority 2011, dated 2020)", "key": {"CCI-ION rats [1]": {"test_system": "CCI-ION rats", "details": "cited from earlier work"}, "CCI-SN rats [2]": {"test_system": "CCI-SN rats", "type": "in vivo, rat", "details": "rat, in vivo", "procedure": "(§1) Male Sprague-Dawley rats (Charles River Laboratories, L'Arbresle, France), weighing 150-200 g on arrival, were used. Animals were maintained under controlled environmental conditions (22±1° C., 60% relative humidity, 12 h/12 h light/dark cycle, food and water ad libitum) starting from reception in the laboratory, for at least 1 week before any intervention or treatment and thereafter, until euthanasia.\nRats were anaesthetized as above and the common sciatic nerve was exposed. Using a dissection microscope (2× magnification), four chromic catgut (5-0) ligations were tied loosely with about 1 mm spacing, proximally to the sciatic trifurcation (Bennett and Xie, 1988). Finally, the skin and muscle were sewed using silk sutures (4-0). In sham-operated animals, the same surgery was performed, but the nerve was not ligated.\n(§2) Tapentadol (1, 3 and 10 mg/kg i.p.), reboxetine (10 mg/kg i.p.), morphine (1 and 3 mg/kg s.c.) or their vehicle (0.9% NaCl) were injected acutely 14 days after surgery, when allodynia/hyperalgesia reached a plateau in both CCI-SN and CCI-ION rats. Behavioral tests were performed at various times for up to 4 h after injection. In drug association procedure, reboxetine or saline was administered 15 min before morphine or saline.\n(§3) Subchronic treatment consisted of twice daily injections of tapentadol (10 mg/kg, i.p. at 10:00 am and 6:00 pm) or saline for 4 days starting on the 15th day after nerve ligation in both CCI-ION and CCI-SN rats. Animals were further injected with tapentadol (10 mg/kg i.p.) or saline at 10:00 am the following day (19th day post-surgery), and assessment of allodynia with von Frey filament tests (see below) was made at various times up to 4 hours after this injection. All rats were killed by decapitation 4 hours after the last injection for real-time qRT-PCR determinations of specific mRNAs in ganglia and central tissues (see below).\nBefore testing, each rat was habituated for 2 h as above, and mechanical sensitivity was then determined with a graded series of […] von Frey filaments, that produced a bending force of 6, 8, 10, 12, 15, 26, and 60 g, respectively. The stimuli were applied within the SN territory (lateral part of the hind paw sole). Each filament was tested three times on the nerve-injured side in increasing order starting with the filament producing the lowest force. As for the CCI-ION rats, the von Frey filaments were applied at least 3 seconds after the rat had returned to its initial resting state. The minimal force filament for which animals presented either a brisk paw withdrawal and/or an escape attempt in response to at least 2 out of the 3 stimulations allowed determination of the mechanical response threshold. The 60.00 g filament was chosen as the cutoff threshold to inhibit any tissue injury.\nA—Two weeks after unilateral chronic constriction injury to the sciatic nerve, pressure threshold values (as g) to trigger nocifensive responses to von Frey filaments application onto the plantar surface of ipsilateral hindpaw were determined at various times after acute injection of tapentadol (1, 3 or 10 mg/kg, i.p.) or saline. B—On day 15 (D on abscissa) after nerve ligation, rats were treated subchronically with tapentadol (10 mg/kg, i.p., twice daily, at 10:00 AM and 6:00 PM) or saline for four days. On the following day (day 19 after surgery), both tapentadol- and saline-pretreated CCI-SN rats were injected with tapentadol (10 mg/kg, i.p.; 0 on abscissa) and then subjected to von Frey filaments' test applied to ipsilateral hindpaw for determination of pressure threshold values (as g) at various times thereafter."}, "CCI-ION rats [3]": {"test_system": "CCI-ION rats", "type": "in vivo, rat", "details": "rat, in vivo", "procedure": "as §1\nRats were anaesthetized with sodium pentobarbital (50 mg/kg i.p.). Unilateral CCI-ION was performed under direct visual control using a Zeiss microscope (10-25×). Briefly, the head was fixed in a Horsley-Clarke stereotaxic frame and a midline scalp incision was made, exposing skull and nasal bone. The edge of the orbit, formed by the maxillary, frontal, lacrimal, and zygomatic bones, was dissected free. The orbital contents were then gently deflected to give access to the infraorbital nerve which was dissected free at its most rostral extent in the orbital cavity, just caudal to the infraorbital foramen. Only 5 mm of the nerve could be freed, providing the space for placement of two chromic catgut (5-0) ligations tied loosely (with about 2 mm spacing) around it. […] Finally, scalp incision was closed using silk sutures (4-0). In sham-operated rats, the ION was exposed using the same procedure, but was not ligated.\nas §2, §3\nRats were placed individually in small (35×20×15 cm) plastic cages for a 2 h habituation period. Before any stimulation session, rats freely explored the observation cage and the testing environments for 2 h. Then mechanical sensitivity was determined with a graded series of […] von Frey filaments (Bioseb, Bordeaux, France). The filaments produced a bending force of 0.40, 0.60, 1.00, 2.00, 4.00, 6.00, 8.00, 10.00 and 12.00 g, respectively. The stimuli were applied within the ION territory (vibrissae pad) three times on the nerve-injured side and then on the contralateral side for a total of 6 applications of each filament per rat, always beginning with the filament producing the lowest force. The von Frey filaments were applied at least 3 seconds after the rat had returned to its initial resting state. For each session, the complete series of von Frey filaments was tested in increasing force order. […] The latter responses represented the highest scores in the rank-ordered response scoring system initially described by Vos et al. (1994). Under our own conditions, the mechanical response threshold was determined as the minimal force filament causing at least one among these responses to at least 2 out of the 3 applications in vibrissae territory. […] To avoid nonspecific responses, only these rats were included in the study."}, "[4]": {"test_system": "mice hindpaw after incision", "details": "mouse, in vivo; cited from earlier work"}, "CCI-SN rats [5]": {"test_system": "CCI-SN rats", "details": "rat, in vivo; cited from earlier work"}}, "note": "“Also recorded” adds a separate entry of the source. Where two headings read alike, the source gives them in different places.", "data": [{"smiles": "NC1CCN(O)C1=O", "note": "(single isomer, unassigned; (+)) [(+)-HA966]", "values": [{"measurement": "cephalic neuropathic pain, each drug alone", "setting": "CCI-ION rats [1]; each drug alone", "result": "inactive"}]}, {"smiles": "CN1CC[C@]23c4c5ccc(O)c4O[C@H]2[C@@H](O)C=C[C@H]3[C@H]1C5", "note": "[morphine]", "values": [{"measurement": "effect on CCI-SN-induced mechanical allodynia", "setting": "CCI-SN rats [2]", "result": "fully reversed CCI-SN-induced mechanical allodynia; also recorded: allodynia was not completely reversed"}, {"measurement": "persistence of reversal of allodynia", "setting": "CCI-SN rats [2]", "result": "at least one hour"}, {"measurement": "pressure threshold values, either drug alone", "setting": "CCI-SN rats [2]", "result": "only discrete increases in pressure threshold values"}, {"measurement": "maximum increase in pressure threshold value, as % of that in healthy intact rats", "setting": "CCI-ION rats [3]", "result": 20, "unit": "%"}, {"measurement": "incision-induced hyperalgesia", "setting": "[4]", "result": "does not inhibit incision-induced hyperalgesia; also recorded: hyperalgesia is even maintained"}, {"measurement": "allodynia/hyperalgesia in the hindpaw", "setting": "CCI-SN rats [5]", "result": "reversed allodynia/hyperalgesia in the hindpaw"}, {"measurement": "allodynia in the vibrissae territory", "setting": "CCI-ION rats [1]; rat, in vivo", "result": "inactive against allodynia in the vibrissae territory"}, {"measurement": "cephalic neuropathic pain, each drug alone", "setting": "CCI-ION rats [1]; rat, in vivo", "result": "inactive"}]}, {"smiles": "CCOc1ccccc1OC(c1ccccc1)C1CNCCO1", "note": "(stereo not shown) [reboxetine]", "values": [{"measurement": "pressure threshold values, either drug alone", "setting": "CCI-SN rats [2]", "result": "only discrete increases in pressure threshold values"}, {"measurement": "anti-allodynic effect alone", "setting": "CCI-ION rats [3]", "result": "completely inactive on its own"}]}, {"smiles": "NC1=N[C@H](O)[C@H]2[C@H]3O[C@]4(O)O[C@@H]([C@@H](O)[C@@]2(N1)[C@@H]4O)[C@]3(O)CO", "note": "[tetrodotoxin]", "values": [{"measurement": "allodynia/hyperalgesia in the hindpaw", "setting": "CCI-SN rats [5]", "result": "reversed allodynia/hyperalgesia in the hindpaw"}, {"measurement": "allodynia in the vibrissae territory", "setting": "CCI-ION rats [1]; rat, in vivo", "result": "inactive against allodynia in the vibrissae territory"}]}]}
